Source: patent US8933089B2, “HIV inhibiting 5-amido substituted pyrimidines” (Janssen R & D Ireland, priority 2006, dated 2015)

Experiments:
Type in all cases: cell-based, HIV-1
HIV strain K103N = test: Cellular anti-HIV assay in MT4 LTR-EGFP cells, mutant K103N; conditions: Human immunodeficiency virus 1, read-out: K103N pEC50 (converted)
Experimental: (§1) Because of the increasing emergence of drug resistant HIV strains, the present compounds were tested for their potency against clinically isolated HIV strains harbouring several mutations. These mutations are associated with resistance to reverse transcriptase inhibitors and result in viruses that show various degrees of phenotypic cross-resistance to the currently commercially available drugs such as for instance AZT and delavirdine.
(§2) The antiviral activity of the compound of the present invention has been evaluated in the presence of wild type HIV and HIV mutants bearing mutations at the reverse transcriptase gene. The activity of the compounds is evaluated using a cellular assay which was performed according to the following procedure.
(§3) The human T-cell line MT4 is engineered with Green Fluorescent Protein (GFP) and an HIV-specific promoter, HIV-1 long terminal repeat (LTR). This cell line is designated MT4 LTR-EGFP, and can be used for the in vitro evaluation of anti-HIV activity of investigational compounds. In HIV-1 infected cells, the Tat protein is produced which upregulates the LTR promotor and finally leads to stimulation of the GFP reporter production, allowing to measure ongoing HIV-infection fluorometrically. Analogously, MT4 cells are engineered with GFP and the constitutional cytomegalovirus (CMV) promotor. This cell line is designated MT4 CMV-EGFP, and can be used for the in vitro evaluation of cytotoxicity of investigational compounds. In this cell line, GFP levels are comparably to those of infected MT4 LTR-EGFP cells. Cytotoxic investigational compounds reduce GFP levels of mock-infected MT4 CMV-EGFP cells.
(§4) Effective concentration values such as 50% effective concentration (EC50) can be determined and are usually expressed in μM. An EC50 value is defined as the concentration of test compound that reduces the fluorescence of HIV-infected cells by 50%. The 50% cytotoxic concentration (CC50 in μM) is defined as the concentration of test compound that reduces fluorescence of the mock-infected cells by 50%. The ratio of CC50 to EC50 is defined as the selectivity index (SI) and is an indication of the selectivity of the anti-HIV activity of the inhibitor. The ultimate monitoring of HIV-1 infection and cytotoxicity is done using a scanning microscope. Image analysis allows very sensitive detection of viral infection. Measurements are done before cell necrosis, which usually takes place about five days after infection, in particular measurements are performed three days after infection.
(§5) The columns IIIB, L100I, etc. in the table list the pEC50 values against various strains IIIB, L100I, etc.

HIV strain Y188L = test: Cellular anti-HIV assay in MT4 LTR-EGFP cells, mutant Y188L; conditions: Human immunodeficiency virus 1, read-out: Y188L pEC50 (converted)
Experimental: as §1, §2, §3, §4, §5

HIV strain Y181C = test: Cellular anti-HIV assay in MT4 LTR-EGFP cells, mutant Y181C; conditions: Human immunodeficiency virus 1, read-out: Y181C pEC50 (converted)
Experimental: as §1, §2, §3, §4, §5

HIV strain L100I + K103N = test: Cellular anti-HIV assay in MT4 LTR-EGFP cells, mutant L100I + K103N; conditions: Human immunodeficiency virus 1, 72 h, read-out: L100I + K103N pEC50 (converted)
Experimental: as §1, §2, §3, §4, §5

HIV strain L100I = test: Cellular anti-HIV assay in MT4 LTR-EGFP cells, mutant L100I; conditions: Human immunodeficiency virus 1, read-out: L100I pEC50 (converted)
Experimental: as §1, §2, §3, §4, §5

[1] = test system: HIV strain IIIB (wild type); test: Cellular anti-HIV assay in MT4 LTR-EGFP cells, strain IIIB (wild type); selectivity index versus cytotoxicity in mock-infected MT4 CMV-EGFP cells; conditions: for EC50: Human immunodeficiency virus 1, 72 h, wild type HIV strain IIIB, MT4 LTR-EGFP cells, fluorescence, three days after infection, read-out: IIIB pEC50 (converted); for IIIB pSi: selectivity index = ratio of CC50 (mock-infected MT4 CMV-EGFP cells) to EC50 (IIIB), given as p value
Experimental: as §2, §3, §4, §5
Strain IIIB is wild type HIV strain

HIV strain MDR = test: Cellular anti-HIV assay in MT4 LTR-EGFP cells, MDR strain; conditions: Human immunodeficiency virus 1, read-out: MDR pEC50 (converted)
Experimental: as §1, §2, §3, §4, §5
MDR refers to a strain that contains mutations L100I, K103N, Y181C, E138G, V1791, L2214F, V278V/I and A327A/V in HIV reverse transcriptase.

HIV strain K103N + Y181C = test: Cellular anti-HIV assay in MT4 LTR-EGFP cells, mutant K103N + Y181C; conditions: Human immunodeficiency virus 1, 72 h, read-out: K103N + Y181C pEC50 (converted)
Experimental: as §1, §2, §3, §4, §5

SMILES | EC50 (HIV strain K103N) | EC50 (HIV strain Y188L) | EC50 (HIV strain Y181C) | EC50 (HIV strain L100I + K103N) | EC50 (HIV strain L100I) | EC50 [1] | IIIB pSi [1] | EC50 (HIV strain MDR) | EC50 (HIV strain K103N + Y181C)
Cc1cc(/C=C/C#N)cc(C)c1Nc1nc(Nc2ccc(C#N)cc2)ncc1C(=O)NCc1cccs1 [Compound 20] | 5.01 nM | 50.1 nM | 39.8 nM | 100 nM | 15.8 nM | 5.01 nM | 3.60 | 2510 nM | 31.6 nM
Cc1cc(/C=C/C#N)cc(C)c1Nc1nc(Nc2ccc(C#N)cc2)ncc1C(=O)NCC#N [Compound 21] | 5.01 nM | 15.8 nM | 15.8 nM | 15.8 nM | 3.98 nM | 15.8 nM | 2.80 | 501 nM | 15.8 nM
Cc1cc(/C=C/C#N)cc(C)c1Nc1nc(Nc2ccc(C#N)cc2)ncc1C(=O)NCCN(C)C [Compound 22] | 0.631 nM | 50.1 nM | 15.8 nM | 100 nM | 20 nM | 0.794 nM | 3.90 | 2000 nM | 20 nM
Cc1cc(/C=C/C#N)cc(C)c1Nc1nc(Nc2ccc(C#N)cc2)ncc1C(=O)NCc1cccc(Cl)c1 [Compound 25] | 15.8 nM | 50.1 nM | 79.4 nM | 39.8 nM | 25.1 nM | 12.6 nM | 3.00 | 10000 nM | 31.6 nM
Cc1cc(/C=C/C#N)cc(C)c1Nc1nc(Nc2ccc(C#N)cc2)ncc1C(=O)NCc1ccc(F)cc1 [Compound 26] | 12.6 nM | 79.4 nM | 50.1 nM | 316 nM | 25.1 nM | 12.6 nM | 3.00 | 5010 nM | 39.8 nM
Cc1cc(/C=C/C#N)cc(C)c1Nc1nc(Nc2ccc(C#N)cc2)ncc1C(=O)NCc1cccc(Br)c1 [Compound 29] | 20 nM | 158 nM | 79.4 nM | 126 nM | 79.4 nM | 15.8 nM | 3.00 | 10000 nM | 100 nM
Cc1cc(/C=C/C#N)cc(C)c1Nc1nc(Nc2ccc(C#N)cc2)ncc1C(=O)NCc1ccc(N(C)C)cc1 [Compound 30] | 15.8 nM | 316 nM | 100 nM | 251 nM | 100 nM | 12.6 nM | >3.30 | 5010 nM | 100 nM
CC(=O)NCCNC(=O)c1cnc(Nc2ccc(C#N)cc2)nc1Nc1c(C)cc(/C=C/C#N)cc1C [Compound 33] | 15.8 nM | 63.1 nM | 50.1 nM | 15.8 nM | 15.8 nM | 15.8 nM | >3.20 | 398 nM | 12.6 nM
Cc1cc(/C=C/C#N)cc(C)c1Nc1nc(Nc2ccc(C#N)cc2)ncc1C(=O)NCc1ccc(Br)cc1 [Compound 36] | 25.1 nM | 398 nM | 126 nM | 794 nM | 126 nM | 25.1 nM | >3.00 | 10000 nM | 126 nM
Cc1cc(/C=C/C#N)cc(C)c1Nc1nc(Nc2ccc(C#N)cc2)ncc1C(=O)NC1CC1 [Compound 37] | 1.58 nM | 12.6 nM | 12.6 nM | 20 nM | 5.01 nM | 2.51 nM | 3.60 | 1000 nM | 7.94 nM
Cc1cc(/C=C/C#N)cc(C)c1Nc1nc(Nc2ccc(C#N)cc2)ncc1C(=O)NCCCN1CCCC1 [Compound 38] | 1 nM | 25.1 nM | 20 nM | 63.1 nM | 25.1 nM | 0.794 nM | 3.70 | 2000 nM | 15.8 nM
Cc1cc(/C=C/C#N)cc(C)c1Nc1nc(Nc2ccc(C#N)cc2)ncc1C(=O)NCC1CC1 [Compound 41] | 3.98 nM | 79.4 nM | 15.8 nM | 50.1 nM | 7.94 nM | 5.01 nM | >3.70 | 1580 nM | 20 nM
Cc1cc(/C=C/C#N)cc(C)c1Nc1nc(Nc2ccc(C#N)cc2)ncc1C(=O)NCCCN(C)C [Compound 43] | 10 nM | 79.4 nM | 25.1 nM | 126 nM | 50.1 nM | 12.6 nM | >3.30 | 3160 nM | 79.4 nM
Cc1cc(/C=C/C#N)cc(C)c1Nc1nc(Nc2ccc(C#N)cc2)ncc1C(=O)NCCc1ccccn1 [Compound 44] | 2.51 nM | 7.94 nM | 10 nM | 31.6 nM | 12.6 nM | 2 nM | >4.10 | 1260 nM | 10 nM
Cc1cc(/C=C/C#N)cc(C)c1Nc1nc(Nc2ccc(C#N)cc2)ncc1C(=O)NCCc1ccc(S(N)(=O)=O)cc1 [Compound 47] | 25.1 nM | 100 nM | 50.1 nM | 126 nM | 63.1 nM | 20 nM | 3.10 | 501 nM | 126 nM
Cc1cc(/C=C/C#N)cc(C)c1Nc1nc(Nc2ccc(C#N)cc2)ncc1C(=O)NCCc1cccs1 [Compound 48] | 20 nM | 316 nM | 126 nM | 501 nM | 126 nM | 20 nM | 3.10 | 10000 nM | 200 nM
Cc1cc(/C=C/C#N)cc(C)c1Nc1nc(Nc2ccc(C#N)cc2)ncc1C(=O)NCCCO [Compound 49] | 15.8 nM | 79.4 nM | 79.4 nM | 63.1 nM | 20 nM | 15.8 nM | 3.00 | 501 nM | 50.1 nM
Cc1cc(/C=C/C#N)cc(C)c1Nc1nc(Nc2ccc(C#N)cc2)ncc1C(=O)NCCN1CCCC1 [Compound 51] | 6.31 nM | 100 nM | 63.1 nM | 126 nM | 79.4 nM | 3.98 nM | 3.00 | 2510 nM | 63.1 nM
Cc1cc(/C=C/C#N)cc(C)c1Oc1nc(Nc2ccc(C#N)cc2)ncc1C(=O)NCC1CCCO1 (stereo not drawn) [Compound 59] | 6.31 nM | 251 nM | 31.6 nM | 251 nM | 63.1 nM | 2.51 nM | 3.80 | 3980 nM | 79.4 nM
COCCNC(=O)c1cnc(Nc2ccc(C#N)cc2)nc1Oc1c(C)cc(/C=C/C#N)cc1C [Compound 60] | 12.6 nM | 158 nM | 31.6 nM | 316 nM | 79.4 nM | 3.16 nM | 3.50 | 10000 nM | 63.1 nM
Cc1cc(/C=C/C#N)cc(C)c1Oc1nc(Nc2ccc(C#N)cc2)ncc1C(=O)NCC#N [Compound 61] | 3.98 nM | 100 nM | 20 nM | 50.1 nM | 20 nM | 3.16 nM | >3.90 | 3160 nM | 25.1 nM
